US20230172204A1 (BASF SE, priority 2020, published 2023)

Tests used:
[1] = test system: Phakopsora pachyrhizi (F129L); test: Protective control of soybean rust on soybeans (PHAKPA P6); type: in vivo; details: soybean rust F129L; for % PHAKPA (F129L) Disease level P6 at 4 ppm: protective P6, 4 ppm; for % PHAKPA (F129L) Disease level P6 at 16 ppm: protective P6, 16 ppm
[2] = test system: Phakopsora pachyrhizi (F129L); test: Protective control of soybean rust on soybeans (PHAKPA P2); type: in vivo; details: soybean rust F129L; for % PHAKPA (F129L) Disease level P2 at 4 ppm: protective P2, 4 ppm; for % PHAKPA (F129L) Disease level P2 at 16 ppm: protective P2, 16 ppm

Row | SMILES | % PHAKPA (F129L) Disease level P6 at 4 ppm [1] | % PHAKPA (F129L) Disease level P6 at 16 ppm [1] | % PHAKPA (F129L) Disease level P2 at 4 ppm [2] | % PHAKPA (F129L) Disease level P2 at 16 ppm [2]
1 | CO/N=C(/C(=O)OC)c1cccc(C)c1CO/N=C(\C)c1cccc(C2CC2)c1 [compound 297] | 87% | 37% | 90% | 37%
2 | CNC(=O)/C(=N/OC)c1cccc(C)c1CO/N=C(\C)c1ccccc1C(F)F [compound 298] | 97% | 37% | 63% | 7%
3 | CNC(=O)/C(=N/OC)c1cccc(C)c1CO/N=C(\C)c1cccc(C2CC2)c1 [compound 299] | 53% | 22% | 53% | 13%
4 | CO/N=C(/C(=O)OC)c1cccc(C)c1CO/N=C(\C)c1cccc(C(C)(F)F)c1 [compound 302] | 47% | 3% | 47% | 4%
5 | CNC(=O)/C(=N/OC)c1cccc(C)c1CO/N=C(\C)c1cccc(C(C)(F)F)c1 [compound 303] | 12% | 0% | 2% | 0%
6 | CO/N=C(/C(=O)OC)c1cccc(C)c1CO/N=C(\C)c1ccc(Cl)cc1C(F)(F)F [compound 304] | 100% | 37% | 53% | 28%
7 | CNC(=O)/C(=N/OC)c1cccc(C)c1CO/N=C(\C)c1ccc(OC)cc1C(F)(F)F [compound 324] | 12% | 0% | 2% | 1%
8 | CNC(=O)/C(=N/OC)c1cccc(C)c1CO/N=C(\C)c1c(F)cccc1OC(F)(F)F [compound 325] | 22% | 1% | 24% | 4%
9 | CNC(=O)/C(=N/OC)c1cccc(C)c1CO/N=C(\C)c1cccc(F)c1C(F)(F)F [compound 326] | 30% | 1% | 25% | 0%
10 | CNC(=O)/C(=N/OC)c1cccc(C)c1CO/N=C(\C)c1ccc(C)cc1C(F)(F)F [compound 327] | 48% | 4% | 23% | 3%
11 | CO/N=C(/C(=O)OC)c1cccc(C)c1CO/N=C(\C)c1ccc(OC)cc1C(F)(F)F [compound 328] | 23% | 5% | 33% | 8%
12 | CNC(=O)/C(=N/OC)c1cccc(C)c1CO/N=C(\C)c1ccccc1OC1CC1 [compound 329] | 100% | 73% | 100% | 53%
13 | CO/N=C(/C(=O)OC)c1cccc(C)c1CO/N=C(\C)c1cccc(F)c1C(F)(F)F [compound 330] | 93% | 17% | 83% | 24%
14 | CO/N=C(/C(=O)OC)c1cccc(C)c1CO/N=C(\C)c1ccc(Oc2ccc(Cl)cc2)cc1C(F)(F)F [compound 335] | 80% | 25% | 77% | 53%
15 | CNC(=O)/C(=N/OC)c1cccc(C)c1CO/N=C(\C)c1ccc(Oc2ccc(Cl)cc2)cc1C(F)(F)F [compound 336] | 50% | 17% | 63% | 20%
16 | CNC(=O)/C(=N/OC)c1cccc(C)c1CO/N=C(\C)c1ccc(OC)cc1OC(F)(F)F [compound 337] | 13% | 1% | 9% | 0%
17 | CNC(=O)/C(=N/OC)c1cccc(C)c1CO/N=C(\C)c1ccc(C)cc1OC(F)(F)F [compound 340] | 42% | 7% | 23% | 4%
18 | CNC(=O)/C(=N/OC)c1cccc(C)c1CO/N=C(\C)c1c(F)cc(F)cc1OC(F)(F)F [compound 344] | 16% | 0% | 6% | 0%
